We go through 12 compounds from patent publication US6572603B1, “Vitamin d solution holder and containers for transfusions” (Otsuka Pharmaceutical Factory, Inc., priority 1998, dated 2003).

Counter-ions that a name gives are not always drawn.

Data set [1] can be described thus: Vitamin contents in transfusion fluid containers of Examples 4 and 5 after autoclaving and 40° C. four-month storage, bioassay (vitamin B12, biotin) or HPLC (other vitamins). Type of data set: physicochemical. The protocol: In a holder produced from a three-layered film (the thickness of each layer: 10 μm) in which the outer and the inner layers are made of polyethylene and the intermediate layer is made of ethylene.tetracyclododecene copolymer (trade name: Apel, product of Mitsui Chemicals, Inc.), solution (C) (4 ml) was charged and the inlet was melt-sealed. In a two-compartment container, the prepared holder was attached to one of the compartments. […] The above-described transfusion fluid containers in Examples 4 and 5 were allowed to stand at 40° C. for four months after autoclaving. Thereafter, the contents of vitamins in the containers were measured through a bioassay according to Pharmacopoeia of Japan (for vitamin B12 and biotin) or through HPLC (for other vitamins). The content of each vitamin is represented by a percentage (%) of the initially incorporated amount.

The nature of data set [2]: Vitamin content of solution (C) in polyolefin holders after autoclaving and storage at 40° C. for four months, measured through HPLC (Example 3). The format is physicochemical. The procedure:
Solution (C) (4 ml) prepared in Example 1 was charged into each of holders made of the materials shown in Table 3, to thereby obtain a holder which contains a solution of vitamin D3. Each of these holders containing a solution of vitamin D3 was subjected to autoclaving and wrapped in a nylon multi-layered-film bag together with a deoxidizing agent (trade name: Ageless, product of Mitsubishi Gas Chem. Co., Inc.). The thus-wrapped holders were allowed to stand at 40° C. for four months. Thereafter, the content of each vitamin in each holder was measured through HPLC. The content of each vitamin is represented by a percentage (%) of the initially incorporated amount.

The mark [3] stands for this setting: Example 4 transfusion fluid container, 40° C., 4 months.
[4] abbreviates: Example 4 transfusion fluid container, immediately after sterilization.
Where [5] appears, read: Example 5 transfusion fluid container, 40° C., 4 months.
Where [6] appears, read: Example 5 transfusion fluid container, immediately after sterilization.
[7] abbreviates: holder No. 1, polyethylene, 30 μm, resin 7.4 cm^3 per μmol vitamin D, 40° C., 4 months.
[8] abbreviates: holder No. 1, polyethylene, 30 μm, resin 7.4 cm^3 per μmol vitamin D, after sterilization.
Where [9] appears, read: holder No. 2, polyethylene, 100 μm, resin 18.5 cm^3 per μmol vitamin D, 40° C., 4 months.
Where [10] appears, read: holder No. 2, polyethylene, 100 μm, resin 18.5 cm^3 per μmol vitamin D, after sterilization.
Setting [11] is: holder No. 3, polypropylene, 30 μm, resin 7.4 cm^3 per μmol vitamin D, 40° C., 4 months.
Where [12] appears, read: holder No. 3, polypropylene, 30 μm, resin 7.4 cm^3 per μmol vitamin D, after sterilization.
Where [13] appears, read: holder No. 4, polyethylene, 250 μm, resin 123.2 cm^3 per μmol vitamin D, 40° C., 4 months.
Where [14] appears, read: holder No. 4, polyethylene, 250 μm, resin 123.2 cm^3 per μmol vitamin D, after sterilization.
Where [15] appears, read: holder No. 5, polypropylene, 250 μm, resin 123.2 cm^3 per μmol vitamin D, 40° C., 4 months.
Where [16] appears, read: holder No. 5, polypropylene, 250 μm, resin 123.2 cm^3 per μmol vitamin D, after sterilization.

`O=C(O)CCCC[C@@H]1SC[C@@H]2NC(=O)N[C@@H]21` [Biotin, biotin]: the “Vitamin content, percentage (%) of the initially incorporated amount” value (“Vitamin content, percentage (%)” for short) in data set [1] (setting [3]) was 99.8%; in data set [1] (setting [4]), 100.4%; in data set [1] (setting [5]), 100.3%; in data set [1] (setting [6]), 98.7%.
For `Nc1nc2ncc(CNc3ccc(C(=O)N[C@@H](CCC(=O)O)C(=O)O)cc3)nc2c(=O)[nH]1` [Folic acid, folic acid], the “Vitamin content, percentage (%)” value stood at 97.5% in data set [1] (setting [3]), 97.8% in data set [1] (setting [4]), 99.1% in data set [1] (setting [5]) and 98.3% in data set [1] (setting [6]).
On the same counts, the results for `NC(=O)c1cccnc1` [Nicotinamide, nicotinamide] are 97.8%, 98.6%, 98.5% and 98.2%.
In the case of `CC(C)(CO)[C@@H](O)C(=O)NCCCO` [Panthenol, panthenol], the “Vitamin content, percentage (%)” value in data set [1] (setting [3]) came out at 96.9%; in data set [1] (setting [4]), 97.4%; in data set [1] (setting [5]), 97.6%; in data set [1] (setting [6]), 98.5%.
Take `Cc1ncc(CO)c(CO)c1O.Cl` [Pyridoxine hydrochloride (B6), pyridoxine hydrochloride]: the “Vitamin content, percentage (%)” value came to 100.1% in data set [1] (setting [3]), 100.5% in data set [1] (setting [4]), 99.8% in data set [1] (setting [5]) and 99.7% in data set [1] (setting [6]).
The corresponding values for `Cc1ncc(C[n+]2csc(CCO)c2C)c(N)n1` [Thiamin hydrochloride (B1), thiamin hydrochloride] are 87.4%, 93.8%, 86.6% and 93.5%.
Take `CCCCCCCCCCCCCCCC(=O)OC/C=C(C)/C=C/C=C(C)/C=C/C1=C(C)CCCC1(C)C` [Vitamin A, retinol palmitate]: the “Vitamin content (%) of initially incorporated amount” value (“Vitamin content (%)” below) worked out at 80.7% in data set [2] (setting [7]); 91.1% in data set [2] (setting [8]); 81.3% in data set [2] (setting [9]); 90.9% in data set [2] (setting [10]); 81.2% in data set [2] (setting [11]); 90.7% in data set [2] (setting [12]). In addition, the “Vitamin content (%)” value in data set [2] (setting [13]) is reported as 78.3%; in data set [2] (setting [14]), 89.1%; in data set [2] (setting [15]) it was 77.8%; in data set [2] (setting [16]) it was 88.9%. Also, the “Vitamin content, percentage (%)” value in data set [1] (setting [3]) was 84.5%; in data set [1] (setting [4]) it was 87.2%; in data set [1] (setting [5]), 83.9%; in data set [1] (setting [6]), 86.5%.
With `Cc1cc2nc3c(=O)[nH]c(=O)nc-3n(C[C@H](O)[C@H](O)[C@H](O)COP(=O)(O)O)c2cc1C` [Vitamin B2, sodium riboflavin phosphate], the “Vitamin content (%)” value in data set [2] (setting [7]) is on record as 90.7%; in data set [2] (setting [8]) it was 94.8%; in data set [2] (setting [9]), 91.2%; in data set [2] (setting [10]), 96.3%; in data set [2] (setting [11]), 91.0%; in data set [2] (setting [12]), 95.4%. Besides, the “Vitamin content (%)” value in data set [2] (setting [13]) is 90.9%; in data set [2] (setting [14]), 94.6%; in data set [2] (setting [15]) it was 91.2%; in data set [2] (setting [16]), 95.3%. The “Vitamin content, percentage (%)” value was 83.2% in data set [1] (setting [3]), 86.5% in data set [1] (setting [4]), 84.3% in data set [1] (setting [5]) and 85.9% in data set [1] (setting [6]).
For `O=C1O[C@H]([C@@H](O)CO)C(O)=C1O` [Vitamin C, ascorbic acid], the “Vitamin content (%)” value in data set [2] (setting [7]) is on record as 94.3%; in data set [2] (setting [8]), 96.2%; in data set [2] (setting [9]) it was 95.4%; in data set [2] (setting [10]) it was 97.1%; in data set [2] (setting [11]), 94.2%; in data set [2] (setting [12]), 97.3%. The “Vitamin content (%)” value was 94.8% in data set [2] (setting [13]), 97.5% in data set [2] (setting [14]), 93.1% in data set [2] (setting [15]) and 96.8% in data set [2] (setting [16]). Also, the “Vitamin content, percentage (%)” value is 98.3% in data set [1] (setting [3]), 98.7% in data set [1] (setting [4]), 97.5% in data set [1] (setting [5]) and 97.8% in data set [1] (setting [6]).
With `CC(=O)Oc1c(C)c(C)c2c(c1C)CCC(C)(CCC[C@H](C)CCC[C@H](C)CCCC(C)C)O2` (some centres unmarked) [Vitamin E, tocopherol acetate], the “Vitamin content (%)” value in data set [2] (setting [7]) came out at 98.3%; in data set [2] (setting [8]), 98.7%; in data set [2] (setting [9]) it was 99.7%; in data set [2] (setting [10]), 99.4%; in data set [2] (setting [11]) it was 97.3%; in data set [2] (setting [12]) it was 97.6%. Moreover, the “Vitamin content (%)” value in data set [2] (setting [13]) was found to be 95.6%; in data set [2] (setting [14]) it was 98.2%; in data set [2] (setting [15]) it was 95.3%; in data set [2] (setting [16]), 97.6%. For the same compound, the “Vitamin content, percentage (%)” value in data set [1] (setting [3]) was 95.1%; in data set [1] (setting [4]), 94.9%; in data set [1] (setting [5]), 94.8%; in data set [1] (setting [6]) it was 95.3%.
As for `CC1=C(C/C=C(\C)CCC[C@H](C)CCC[C@H](C)CCCC(C)C)C(=O)c2ccccc2C1=O` [Vitamin K, phytonadione], the “Vitamin content (%)” value in data set [2] (setting [7]) was 91.3%; in data set [2] (setting [8]), 95.4%; in data set [2] (setting [9]), 90.8%; in data set [2] (setting [10]), 94.7%; in data set [2] (setting [11]) it was 91.3%; in data set [2] (setting [12]) it was 96.1%. The “Vitamin content (%)” value in data set [2] (setting [13]) amounted to 89.1%; in data set [2] (setting [14]), 94.3%; in data set [2] (setting [15]), 88.7%; in data set [2] (setting [16]), 93.9%. The “Vitamin content, percentage (%)” value in data set [1] (setting [3]) is 95.3%; in data set [1] (setting [4]), 96.2%; in data set [1] (setting [5]) it was 95.4%; in data set [1] (setting [6]) it was 95.8%.
In the case of cyanocobalamin [Cyanocobalamin (B12)], the “Vitamin content, percentage (%)” value came out at 89.2% in data set [1] (setting [3]), 91.3% in data set [1] (setting [4]), 90.5% in data set [1] (setting [5]) and 96.5% in data set [1] (setting [6]).
